Measurements published in US20070011757A1, “Transgenic rodents as animal models for modulation of B1 bradykinin receptor protein” (priority 2001, published 2007).

Columns and labels:
[1] = target: T1, human B1 bradykinin receptor (Homo sapiens, UniProt P46663); assay: 3H-DALK binding to membranes from transgenic rat brain tissue
T1 construct: from tissue; host or cells: whole-brain membranes of transgenic Sprague-Dawley rats carrying Construct #1
T1 sequence (P46663 1-353): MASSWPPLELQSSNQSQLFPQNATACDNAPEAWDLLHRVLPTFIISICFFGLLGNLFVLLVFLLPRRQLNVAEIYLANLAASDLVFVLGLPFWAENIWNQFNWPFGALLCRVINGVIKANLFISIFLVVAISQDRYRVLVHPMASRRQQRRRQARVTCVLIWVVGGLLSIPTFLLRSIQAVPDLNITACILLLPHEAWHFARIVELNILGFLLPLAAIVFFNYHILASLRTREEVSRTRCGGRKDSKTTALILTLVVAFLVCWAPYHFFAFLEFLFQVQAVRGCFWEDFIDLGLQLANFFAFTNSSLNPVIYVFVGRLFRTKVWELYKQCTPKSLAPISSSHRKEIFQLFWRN
Procedure: Also important in these assays is the low expression level of endogenous B1 receptor in neuronal tissue. Briefly, transgenic animals from line 0004, 0014, and 0015 (all females) were decapitated following anesthesia and the whole brain was removed, bisected sagitally and the entire 1⁄2 brain weighed. Weights were as follows: line 0004 (813 mg), line 0014 (851 mg), and 0015 (843 mg). The brain tissue was homogenized with a Polytron in ice cold 50 mM Tris-HCl, 1 mM EDTA, 1 mM o-phenanthroline, pH 7.4. The homogenate was centrifuged at 50,000×g for 20 minutes. The pellet was resuspended and homogenized a second time in Tris buffer, and the centrifugation step was repeated. The final pellet was resuspended in assay buffer (20 mM HEPES, 120 mM NaCl, 5 mM KCl, 1 mM o-phenanthroline, 0.2 uM of […] form and active metabolite of […] added to inhibit angiotensin converting enzyme), 100 μg/ml bacitracin, 3 μM amastatin, 1 μM phosphoramidon, 0.1% BSA, pH 7.4. The assay was carried out in a 0.5 ml volume at room temperature for sixty minutes with 10 mg wet weight tissue/tube. Total protein was determined using a Bio Rad DC assay kit. […] FIG. 9A, 9B and 9C show measurements of the amount of total, nonspecific and specific binding of ^3H-DALK to transgenic rat brain tissue which expresses human B1 bradykinin receptor. […] In contrast, no B1 receptor is detected in the brains of non-transgenic rats. The Ki values determined for three standard lead compounds in Line 0004 are very similar to those obtained at the cloned hB1 receptor expressed in CHO cells. Therefore, expression of the human B1 bradykinin receptor in Line 0004 has the properties expected for the human B1 receptor.

endogenous B1 receptor = target: T2, endogenous B1 receptor (Rattus norvegicus, UniProt P97583); assay: Autoradiography of [3H]DALK binding in brain and spinal cord sections of non-transgenic rats; details: non-transgenic control rats, 0.3 nM radioligand
T2 construct: DALK in non-transgenic control rats; from tissue; host or cells: brain and spinal cord sections (and whole-brain homogenate) of non-transgenic Sprague-Dawley rats
T2 sequence (P97583 1-337): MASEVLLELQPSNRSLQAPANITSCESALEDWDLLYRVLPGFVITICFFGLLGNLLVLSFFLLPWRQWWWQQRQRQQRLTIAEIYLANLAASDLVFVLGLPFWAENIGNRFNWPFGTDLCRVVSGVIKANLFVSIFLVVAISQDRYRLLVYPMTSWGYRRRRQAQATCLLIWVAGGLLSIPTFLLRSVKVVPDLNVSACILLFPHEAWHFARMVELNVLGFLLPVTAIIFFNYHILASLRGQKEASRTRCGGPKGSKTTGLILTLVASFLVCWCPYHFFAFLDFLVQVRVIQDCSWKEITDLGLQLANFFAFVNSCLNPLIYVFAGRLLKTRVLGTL

- affinity for the human B1 receptor relative to the rat B1 receptor [1]: greater affinity
- selectivity ([1]; printed as 'approximately 40 fold selective for this ligand'): approximately 40 fold
- expression (specific binding of 3H-DALK, saturation binding) ([1]; transgenic rat Line 0004 brain membranes, FIG. 9A): 40 fmol/mg protein
- expression (specific binding of 3H-DALK, saturation binding) ([1]; transgenic rat Line 0014 brain membranes, FIG. 9B): 4 fmol/mg protein
- expression (specific binding of 3H-DALK, saturation binding) ([1]; transgenic rat Line 0015 brain membranes, FIG. 9C): 7 fmol/mg protein
- binding site in transgenic rats expressing the human B1 receptor ([1]; whole brain homogenate assay or receptor autoradiography of brain slices): readily detectable
- specific binding (endogenous B1 receptor): did not show any specific binding signal
- specific binding (endogenous B1 receptor; listed as [H-3] DALK): no detectable specific binding
Substance: [des-Arg^10, Leu^9]-Kallidin [^3H-DALK]
